The compounds below were run on Aβ42 production (assay: Quantification of Aβ peptide in culture of neurons from rat fetus brain (Aβ ELISA)). Conditions: Neuron, 72 h; rat primary neuronal culture (cerebral cortex, embryonic day 18 Wistar rats); medium collected three days after addition of compound; Aβx-42 ELISA; read-out: Activity for reducing Aβ42 production IC50.
Format: cell-based
Description: Quantification of Aβ Peptide in Culture of Neurons from Rat Fetus Brain
(1) Rat Primary Neuronal Culture
Primary neuronal cultures were prepared from the cerebral cortex of embryonic day 18 Wistar rats (Charles River Japan, Yokohama, Japan). Specifically, the embryos were aseptically removed from pregnant rats under ether anesthesia. The brain was isolated from the embryo and immersed in an ice-cold L-15 medium (Invitrogen Corp. Cat #11415-064, Carlsbad, Calif., USA, or SIGMA L1518, for example). The cerebral cortex was collected from the isolated brain under a stereoscopic microscope. The cerebral cortex fragments collected were enzymatically treated in an enzyme solution containing 0.25% trypsin (Invitrogen Corp. Cat #15050-065, Carlsbad, Calif., USA) and 0.01% DNase (Sigma D5025, St. Louis, Mo., USA) at 37° C. for 30 minutes to disperse the cells. Here, the enzymatic reaction was stopped by adding inactivated horse serum to the solution. The enzymatically treated solution was centrifuged at 1,500 rpm for five minutes to remove the supernatant. 5 to 10 ml of a medium was added to the resulting cell mass. Neurobasal medium (Invitrogen Corp. Cat #21103-049, Carlsbad, Calif., USA) supplemented with 2% B27 supplement (Invitrogen Corp. Cat #17504-044, Carlsbad, Calif., USA), 25 μM 2-mercaptoethanol (2-ME, WAKO Cat #139-06861, Osaka, Japan), 0.5 mM L-glutamine (Invitrogen Corp. Cat #25030-081, Carlsbad, Calif., USA), and Antibiotics-Antimycotics (Invitrogen Corp. Cat #15240-062, Carlsbad, Calif., USA) was used as the medium (Neurobasal/B27/2-ME). However, the above Neurobasal medium not supplemented with 2-ME (Neurobasal/B27) was used for the assay. The cells were redispersed by mild pipetting of the cell mass to which the medium was added. The cell dispersion was filtered through a 40-μm nylon mesh (Cell Strainer, Cat #35-2340, Becton Dickinson Labware, Franklin Lakes, N.J., USA) to remove the remaining cell mass, and thus a neuronal cell suspension was obtained. The neuronal cell suspension was diluted with the medium and then plated in a volume of 100 μl/well at an initial cell density of 5×10^5 cells/cm^2 in a 96-well polystyrene culture plate pre-coated with poly-L or D-lysine (Falcon Cat #35-3075, Becton Dickinson Labware, Franklin Lakes, N.J., USA coated with poly-L-lysine using the method shown below, or BIOCOAT™ cell environments Poly-D-lysine cell ware 96-well plate, Cat #35-6461, Becton Dickinson Labware, Franklin Lakes, N.J., USA). Poly-L-lysine coating was carried out as follows. 100 μg/ml of a poly-L-lysine (SIGMA P2636, St. Louis, Mo., USA) solution was aseptically prepared with a 0.15 M borate buffer (pH 8.5). 100 μl/well of the solution was added to the 96-well polystyrene culture plate and incubated at room temperature for one or more hours or at 4° C. overnight or longer. The coated 96-well polystyrene culture plate was washed with sterile water four or more times, and then dried or rinsed with, for example, sterile PBS or medium, and used for cell plating. The plated cells were cultured in the culture plate at 37° C. in 5% […]-95% air for one day. Then, the total amount of the medium was replaced with a fresh Neurobasal™/B27/2-ME medium, and then the cells were cultured for further three days.
The drug was added to the culture plate on Day 4 of culture as follows. The total amount of the medium was removed from the wells, and 180 μl/well of Neurobasal medium not containing 2-ME and containing 2% B-27 (Neurobasal/B27) was added thereto. A solution of the test compound in dimethyl sulfoxide (hereinafter abbreviated as DMSO) was diluted with Neurobasal/B27 so that the initial concentration was at 10-fold of the final concentration. 20 μl/well of the dilution was added to and sufficiently mixed with the medium. The final DMSO concentration was 1% or less. Only DMSO was added to the control group.
The cells were cultured for three days after addition of the compound, and the total amount of the medium was collected. […]

First: COc1cc(/C=C2\O[C@@H](C)CN(C3(c4ccc(F)cc4)CC3)C2=O)ccc1-n1cnc(C)c1 [Example 39, (Z)-(6S)-4-[1-(4-fluorophenyl)cyclopropyl]-2-[1-[3-methoxy-4-(4-methyl-1H-imidazol-1-yl)phenyl]methylidene]-6-methylmorpholin-3-one]
Second: COc1cc(/C=C2\O[C@@H](C)CN(C(C)(C)c3ccc(F)cc3)C2=O)ccc1-n1cnc(C)c1 [Example 38, (Z)-(6S)-4-[1-(4-fluorophenyl)-1-methylethyl]-2-[1-[3-methoxy-4-(4-methyl-1H-imidazol-1-yl)phenyl]methylidene]-6-methylmorpholin-3-one]
The IC50 of the first is 2.5-fold higher: 130 nM for the first, 52 nM for the second. The second is the more potent here.

Compared with `COc1cc(/C=C2\OC(C)(C)CN([C@@H](C)c3ccc(F)cc3)C2=O)ccc1-n1cnc(C)c1` [Example 7, (Z)-4-[(S)-1-(4-fluorophenyl)ethyl]-2-[1-[3-methoxy-4-(4-methyl-1H-imidazol-1-yl)phenyl]methylidene]-6,6-dimethylmorpholin-3-one], `COc1cc(/C=C2\OC(C)(C)CN([C@H](c3ccc(F)c(F)c3)[C@@H](C)O)C2=O)ccc1-n1cnc(C)c1` [Example 35, (Z)-4-[(1R,2R)-1-(3,4-difluorophenyl)-2-hydroxypropyl]-2-[1-[3-methoxy-4-(methylimidazol-1-yl)phenyl]methylidene]-6,6-dimethylmorpholin-3-one] is 3.3-fold lower in IC50: 76 nM for the first, 23 nM for the second.

`Cc1cn(-c2ccc(/C=C3\O[C@@H](C)CN([C@H](c4ccc(F)c(F)c4)[C@@H](C)O)C3=O)cc2F)cn1` [Example 75, (Z)-(S)-4-[(1R,2R)-1-(3,4-difluorophenyl)-2-hydroxypropyl]-2-[1-[3-fluoro-4-(4-methyl-1H-imidazol-1-yl)phenyl]methylidene]-6-methylmorpholin-3-one] and `Cc1cn(-c2ccc(/C=C3\O[C@@H](C)CN([C@H](c4cc(F)c(F)c(F)c4)[C@@H](C)O)C3=O)cc2F)cn1` [Example 74, (Z)-(S)-2-[1-[3-fluoro-4-(4-methyl-1H-imidazol-1-yl)phenyl]methylidene]-4-[(1R,2R)-2-hydroxy-1-(3,4,5-trifluorophenyl)propyl]-6-methylmorpholin-3-one] are within 1.5-fold of each other in IC50: 146 nM for the first, 140 nM for the second.

First: COc1cc(/C=C2\O[C@@H](C)CN([C@@H](C)c3ccnc(Cl)c3)C2=O)ccc1-n1cnc(C)c1 [Example 51, (Z)-(S)-4-[(S)-1-(2-chloropyridin-4-yl)ethyl]-2-[1-[3-methoxy-4-(4-methyl-1H-imidazol-1-yl)phenyl]methylidene]-6-methylmorpholin-3-one]
Second: COc1cc(/C=C2\O[C@@H](C)CN([C@H](c3ccc(F)cc3)[C@@H](C)O)C2=O)ccc1-n1cnc(C)c1 [Example 32, (Z)-(S)-4-[(1R,2R)-1-(4-fluorophenyl)-2-hydroxypropyl]-2-[1-[3-methoxy-4-(4-methyl-1H-imidazol-1-yl)phenyl]methylidene]-6-methylmorpholin-3-one]
The IC50 of the first is 1.6-fold higher: 67 nM for the first, 41 nM for the second.

`COc1cc(/C=C2\OCCN(Cc3ccc(F)c(F)c3F)C2=O)ccc1-n1cnc(C)c1` [Example 2, (Z)-2-[1-[3-methoxy-4-(4-methyl-1H-imidazol-1-yl)phenyl]methylidene]-4-(2,3,4-trifluorobenzyl)morpholin-3-one] and `COc1cc(/C=C2\O[C@@H](C)CN(Cc3ccc(F)c(F)c3F)C2=O)ccc1-n1cnc(C)c1` [Example 5, (Z)-(S)-2-[1-[3-methoxy-4-(4-methyl-1H-imidazol-1-yl)phenyl]methylidene]-6-methyl-4-(2,3,4-trifluorobenzyl)morpholin-3-one] are within 1.5-fold of each other in IC50: 187 nM for the first, 125 nM for the second.

`COc1cc(/C=C2\O[C@@H](C)CN([C@H](c3cc(F)c(F)c(F)c3)[C@@H](C)O)C2=O)ccc1-n1cnc(C)c1` [Example 26, (Z)-(S)-4-[(1R,2R)-2-hydroxy-1-(3,4,5-trifluorophenyl)propyl]-2-[1-[3-methoxy-4-(4-methyl-1H-imidazol-1-yl)phenyl]methylidene]-6-methylmorpholin-3-one] was tested, and the IC50 was 6 nM.

From US7618960B2, “Morpholine type cinnamide compound” (Eisai R&D Management Co., Ltd., priority 2005, dated 2009)
